The test system of the data set is metastatic breast cancer with overexpression of the ErbB2 (HER2) oncogene. The data set is described as follows: Randomized clinical study of chemotherapy with or without HERCEPTIN in patients. It counts as in vivo, human.

Procedure: Beginning on day 7, patients received weekly administration of 2 mg/kg antibody (i.v.) over a 90-minute period.
The patients received one of two chemotherapy regiments for a minimum of six cycles, provided their disease was not progressing: a) cyclophosphamide and doxorubicin or epirubicin (AC), if patients have not received anthracycline therapy in the adjuvant setting, or b) paclitaxel (T, TAXOL®), if patients have received any anthracycline therapy in the adjuvant setting. […] Subsequent doses of the antibody were given immediately before chemotherapy administration, if the initial dose of the antibody was well tolerated. If the first dose of the antibody was not well tolerated, subsequent infusions continued to precede chemotherapy administration by 24 hours. Patients were permitted to continue receiving chemotherapy beyond six cycles if, in the opinion of the treating physician, they were continuing to receive treatment benefit.
Cyclophosphamide (600 mg/m^2) was given either by iv push over a minimum period of 3 minutes or by infusion over a maximum period of 2 hours. […]
Time to disease progression (TTP) was calculated from the beginning of therapy to progression. Confidence limits for response rates were calculated using the exact method for a single proportion.

Take `CC(=O)O[C@H]1C(=O)[C@@]2(C)[C@H]([C@H](OC(=O)c3ccccc3)[C@]3(O)C[C@H](OC(=O)[C@H](O)[C@@H](NC(=O)c4ccccc4)c4ccccc4)C(C)=C1C3(C)C)[C@]1(OC(C)=O)CO[C@@H]1C[C@@H]2O` [T, paclitaxel]: the “syndrome of myocardial dysfunction similar to that observed with anthracyclines” value (Grade ¾) came to 0%. The “AE(%), overall severe adverse events” value (median follow-up 10.5 months) is given as 59%.

The record behind these values is patent US7892549B2, “Treatment with anti-ErbB2 antibodies” (Genentech, Inc., priority 1997, dated 2011).
